# Experimental data published in US20060111418A1, “Blood-brain barrier disruption inhibitor” (Mitsubishi Pharma Corporation, priority 2003, published 2006).
# Columns and labels:
# [1] = tested on: experimental autoimmune encephalomyelitis (EAE) model rats; assay: EAE model rats: cytokines in spinal fluid, protein ratio and blood-brain barrier permeability; type: in vivo, rat; details: 3 mg/kg/day i.p., at 10, 11 and 12 days after sensitization, n=3, FIG. 7
# Experimental: (§1) Experimental autoimmune encephalomyelitis (EAE) model rats were prepared by known methods (Int. J. Immunopharmacol, 7: 497-503, 1995). First, an encephalitogenic emulsion consisting of equivalent amounts of Guinea pig spinal cord, sterile phosphate buffered saline (PBS), and Freund's incomplete adjuvant was prepared. Thereafter, 10 mg/ml Mycobacterium tuberculosis H37Ra (Difco Laboratories) was added to the emulsion. Rats (inbred male Lewis rats; body weight: 200 to 250 g) were inoculated with 0.1 ml each of the thus obtained emulsion by subcutaneous administration of the emulsion to both plantae of the hind legs thereof, so as to prepare EAE model rats.
# With regard to the control rats and EAE model rats, the concentrations of TNF-α and IL-1β in blood plasma and in spinal fluid, the protein ratio in spinal fluid/blood plasma, and blood-brain barrier permeability (the ratio of the concentration (Kp, app) of sodium fluorescein in brain/blood plasma, 20 minutes after administration by intravenous injection) were measured, in both a case where edaravone was administered or a case where edaravone was not administered. The terms “Kp” and “app” indicate apparent distribution ratios, which are values obtained by dividing the concentration of fluorescein in brain tissues by the concentration thereof in blood plasma after intravenous injection of the fluorescein (wherein the values are multiplied by 100, so as to be expressed on a percentage basis). It is to be noted that the specific gravity of brain tissues is expressed as 1 (because the unit of concentration is expressed as/g tissue weight). The amount of edaravone administered was set at 3 mg/kg/day (intraperitoneal administration). From 10 days after sensitization (administration of an antigen solution), edaravone was administered at intervals of 24 hours for 3 days (that is, 3 administrations at 10 days, 11 days, and 12 days after sensitization).
# [2] = tested on: experimental autoimmune encephalomyelitis (EAE) model rats; assay: EAE model rats: limb neuroparalysis score (Paul's clinical score); type: in vivo, rat; details: edaravone 3 mg/kg/day i.p., dexamethasone 1 mg/kg/day i.p., n=3, FIG. 8
# Experimental: as §1
# Moreover, limb neuroparalysis scores were evaluated in a group of EAE model rats to which no agents were administered (control), a group of EAE model rats to which dexamethasone was administered (1 mg/kg/day, intraperitoneal administration), and a group of EAE model rats to which edaravone was administered (3 mg/kg/day, intraperitoneal administration). The limb neuroparalysis scores were evaluated in accordance with the following standards.
# [3] = reported in Kawai et al. 1997; Wu et al. 2000; cited from earlier work
# [4] = tested on: blood-brain barrier coculture model (brain capillary endothelial cells and astrocytes); assay: Blood-brain barrier coculture model, permeability measured as TEER; type: cell-based, bovine brain capillary endothelial cells; rat astrocytes; details: TNF-α (50 ng/ml) and/or IL-1β (5 ng/ml) added to the BBB coculture model; n=3; FIG. 2
# Experimental: A blood-brain barrier coculture model was prepared by a method that had previously been reported (Eur. J. Pharm. Sci., 12: 215-222, 2001). Specifically, brain microcapillary endothelial cells and rat astrocytes were isolated, and the two types of cells were cultured on both sides of a Transwell™ filter, so as to prepare a coculture model. The preparation method of such a coculture model will be described below.
# A brain capillary was isolated from a bovine brain. The meninx and white matter were eliminated therefrom, and the gray matter was recovered in DMEM (DMEM+S) to which 10% fetal calf serum had been added. Vascular fragments were prepared by homogenizing by hand, using a Wheaton homogenizer, and they were then captured on a 150-μm nylon mesh. The blood vessel was digested with collagenase, trypsin and DNAseI, in DMEM+S at 37° C. for 1 hour. […]
# The brain capillary was inoculated into a plastic flask used for tissue culture, which had been covered with type IV collagen and fibronectin, and was allowed to adhere to a medium for 4 hours. Thereafter, the medium was exchanged with a growth medium (DMEM+S to which a 50% (v/v) astrocyte-conditioned medium and 125 μg/ml heparin had been added), and growing cells (large quantities of brain capillary endothelial cells and only small quantities of peritheliums) were cultured at 37° C. in 10% CO2. […]
Compound,increased concentration of IL-1β in spinal fluid [1],increased concentration of TNF-α in spinal fluid [1],increased protein ratio in spinal fluid/blood plasma [1],limb neuroparalysis scores [2],reactivity to active oxygen [3],TEER (transcellular endothelial electrical resistance) [4]
"CC1=NN(c2ccccc2)C(=O)C1 [edaravone, 3-methyl-1-phenyl-2-pyrazolin-5-one]",inhibited,inhibited,inhibited,improved,high reactivity,–
"IL-1β: interleukin-1 beta, inflammatory cytokine",–,–,–,–,–,significantly reduced
TNF-α,–,–,–,–,–,significantly reduced
